Laboratory results reported in PubChem BioAssay (NCI).
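Dose response: 5 concentrations. Exposure: 48 h. Format: 96-well plates. Endpoint: linear interpolation; highest concentration if not reached. Definition used: TGI = concentration required for complete inhibition of growth.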

Key:
Assay in all cases: growth of human tumour cells (NCI), 48 h
786-0 renal = test system: 786-0 renal
A498 renal = test system: A498 renal
A549 NSCLC = test system: A549 NSCLC
ACHN renal = test system: ACHN renal
BT-549 breast = test system: BT-549 breast
CAKI-1 renal = test system: CAKI-1 renal
CCRF-CEM leukemia = test system: CCRF-CEM leukemia
COLO 205 colon = test system: COLO 205 colon
DU-145 prostate = test system: DU-145 prostate
HCT-116 colon = test system: HCT-116 colon
HCT-15 colon = test system: HCT-15 colon
HL-60(TB) leukemia = test system: HL-60(TB) leukemia
HOP-62 NSCLC = test system: HOP-62 NSCLC
HOP-92 NSCLC = test system: HOP-92 NSCLC
HS 578T breast = test system: HS 578T breast
HT29 colon = test system: HT29 colon
IGROV1 ovarian = test system: IGROV1 ovarian
K-562 leukemia = test system: K-562 leukemia
KM12 colon = test system: KM12 colon
LOX IMVI melanoma = test system: LOX IMVI melanoma
M14 melanoma = test system: M14 melanoma
MALME-3M melanoma = test system: MALME-3M melanoma
MCF7 breast = test system: MCF7 breast
MDA-MB-231 breast = test system: MDA-MB-231 breast
MDA-MB-435 = test system: MDA-MB-435
MOLT-4 leukemia = test system: MOLT-4 leukemia
NCI-H226 lung = test system: NCI-H226 lung
NCI-H23 lung = test system: NCI-H23 lung
NCI-H460 lung = test system: NCI-H460 lung
NCI-H522 lung = test system: NCI-H522 lung
NCI/ADR-RES ovarian = test system: NCI/ADR-RES ovarian
OVCAR-3 ovarian = test system: OVCAR-3 ovarian
OVCAR-4 ovarian = test system: OVCAR-4 ovarian
OVCAR-5 ovarian = test system: OVCAR-5 ovarian
OVCAR-8 ovarian = test system: OVCAR-8 ovarian
PC-3 prostate = test system: PC-3 prostate
RPMI-8226 leukemia = test system: RPMI-8226 leukemia
RXF 393 renal = test system: RXF 393 renal
SF-268 CNS = test system: SF-268 CNS
SF-295 CNS = test system: SF-295 CNS
SF-539 CNS = test system: SF-539 CNS
SK-MEL-2 melanoma = test system: SK-MEL-2 melanoma
SK-MEL-28 melanoma = test system: SK-MEL-28 melanoma
SK-MEL-5 melanoma = test system: SK-MEL-5 melanoma
SK-OV-3 ovarian = test system: SK-OV-3 ovarian
SN12C renal = test system: SN12C renal
SNB-19 CNS = test system: SNB-19 CNS
SNB-75 CNS = test system: SNB-75 CNS
SR leukemia = test system: SR leukemia
SW-620 colon = test system: SW-620 colon
T-47D breast = test system: T-47D breast
TK-10 renal = test system: TK-10 renal
U251 CNS = test system: U251 CNS
UACC-257 melanoma = test system: UACC-257 melanoma
UACC-62 melanoma = test system: UACC-62 melanoma
UO-31 renal = test system: UO-31 renal
EKVX NSCLC = test system: EKVX NSCLC
HCC-2998 colon = test system: HCC-2998 colon

SMILES: COc1cc2c(/C=C3/C(=O)Nc4ccc(Cl)cc43)c(Cl)[nH]c2cc1C
- TGI (786-0 renal): 15.4 µM
- TGI (A498 renal): 22.9 µM
- TGI (A549 NSCLC): 16.2 µM
- TGI (ACHN renal): 10.8 µM
- TGI (BT-549 breast): 1.08 µM
- TGI (CAKI-1 renal): 14.8 µM
- TGI (CCRF-CEM leukemia): 0.933 µM
- TGI (COLO 205 colon): 2.44 µM
- TGI (DU-145 prostate): 4.38 µM
- TGI (HCT-116 colon): 10.7 µM
- TGI (HCT-15 colon): 4.7 µM
- TGI (HL-60(TB) leukemia): 13.6 µM
- TGI (HOP-62 NSCLC): 13.7 µM
- TGI (HOP-92 NSCLC): 24.2 µM
- TGI (HS 578T breast): 19 µM
- TGI (HT29 colon): 7.54 µM
- TGI (IGROV1 ovarian): 5.43 µM
- TGI (K-562 leukemia): 6.3 µM
- TGI (KM12 colon): 10 µM
- TGI (LOX IMVI melanoma): 6.25 µM
- TGI (M14 melanoma): 13.7 µM
- TGI (MALME-3M melanoma): 20.9 µM
- TGI (MCF7 breast): 34.9 µM
- TGI (MDA-MB-231 breast): 4.62 µM
- TGI (MDA-MB-435): 0.57 µM
- TGI (MOLT-4 leukemia): 0.814 µM
- TGI (NCI-H226 lung): 13.3 µM
- TGI (NCI-H23 lung): 7.13 µM
- TGI (NCI-H460 lung): 13.9 µM
- TGI (NCI-H522 lung): 7.01 µM
- TGI (NCI/ADR-RES ovarian): 6.44 µM
- TGI (OVCAR-3 ovarian): 3.14 µM
- TGI (OVCAR-4 ovarian): 11.4 µM
- TGI (OVCAR-5 ovarian): 17.1 µM
- TGI (OVCAR-8 ovarian): 19.7 µM
- TGI (PC-3 prostate): 11.6 µM
- TGI (RPMI-8226 leukemia): 5.13 µM
- TGI (RXF 393 renal): 20.5 µM
- TGI (SF-268 CNS): 43.7 µM
- TGI (SF-295 CNS): 10.5 µM
- TGI (SF-539 CNS): 0.638 µM
- TGI (SK-MEL-2 melanoma): 29.8 µM
- TGI (SK-MEL-28 melanoma): 14.5 µM
- TGI (SK-MEL-5 melanoma): 10.4 µM
- TGI (SK-OV-3 ovarian): 10.6 µM
- TGI (SN12C renal): 2.67 µM
- TGI (SNB-19 CNS): 12.7 µM
- TGI (SNB-75 CNS): 5.71 µM
- TGI (SR leukemia): 0.926 µM
- TGI (SW-620 colon): 19.7 µM
- TGI (T-47D breast): 26.9 µM
- TGI (TK-10 renal): 8.48 µM
- TGI (U251 CNS): 4.62 µM
- TGI (UACC-257 melanoma): 22.4 µM
- TGI (UACC-62 melanoma): 2.87 µM
- TGI (UO-31 renal): 15.8 µM

SMILES: O=C(/C=C(\C(=O)c1cccs1)c1cccs1)c1ccc(C(=O)/C=C(\C(=O)c2cccs2)c2cccs2)cc1
- TGI (786-0 renal): > 100 µM
- TGI (A549 NSCLC): > 100 µM
- TGI (ACHN renal): > 100 µM
- TGI (CAKI-1 renal): > 100 µM
- TGI (CCRF-CEM leukemia): > 100 µM
- TGI (COLO 205 colon): > 100 µM
- TGI (DU-145 prostate): > 100 µM
- TGI (EKVX NSCLC): > 100 µM
- TGI (HCC-2998 colon): > 100 µM
- TGI (HCT-116 colon): > 100 µM
- TGI (HCT-15 colon): > 100 µM
- TGI (HL-60(TB) leukemia): > 100 µM
- TGI (HOP-62 NSCLC): > 100 µM
- TGI (HS 578T breast): > 100 µM
- TGI (HT29 colon): > 100 µM
- TGI (IGROV1 ovarian): > 100 µM
- TGI (K-562 leukemia): > 100 µM
- TGI (KM12 colon): > 100 µM
- TGI (M14 melanoma): > 100 µM
- TGI (MCF7 breast): > 100 µM
- TGI (MDA-MB-231 breast): > 100 µM
- TGI (MDA-MB-435): > 100 µM
- TGI (MOLT-4 leukemia): > 100 µM
- TGI (NCI-H226 lung): > 100 µM
- TGI (NCI-H460 lung): > 100 µM
- TGI (NCI/ADR-RES ovarian): > 100 µM
- TGI (OVCAR-4 ovarian): > 100 µM
- TGI (OVCAR-8 ovarian): > 100 µM
- TGI (PC-3 prostate): > 100 µM
- TGI (RPMI-8226 leukemia): > 100 µM
- TGI (RXF 393 renal): > 100 µM
- TGI (SF-268 CNS): > 100 µM
- TGI (SF-295 CNS): > 100 µM
- TGI (SF-539 CNS): > 100 µM
- TGI (SK-MEL-2 melanoma): > 100 µM
- TGI (SK-MEL-28 melanoma): > 100 µM
- TGI (SK-MEL-5 melanoma): > 100 µM
- TGI (SK-OV-3 ovarian): > 100 µM
- TGI (SN12C renal): > 100 µM
- TGI (SNB-19 CNS): > 100 µM
- TGI (SNB-75 CNS): > 100 µM
- TGI (SR leukemia): > 100 µM
- TGI (SW-620 colon): > 100 µM
- TGI (T-47D breast): > 100 µM
- TGI (TK-10 renal): > 100 µM
- TGI (U251 CNS): > 100 µM
- TGI (UACC-257 melanoma): > 100 µM
- TGI (UACC-62 melanoma): > 100 µM
- TGI (UO-31 renal): > 100 µM
